Measured values reported in ChEMBL document CHEMBL1141907, “Synthesis and in vitro biological evaluation of a carbon glycoside analogue of morphine-6-glucuronide” (Bioorg Med Chem Lett, 2005).
Where “and” joins values, the source holds several entries; their conditions need not be identical. Equal values may be shown once. Calls of active or inactive are those of the source. No cut-off for these calls is given here.

Assays:
[1] = Stimulation of [35S]GTPcS binding against recombinant human opioid receptor mu 1; assay type: functional
[2] = Stimulation of [35S]GTPcS binding against recombinant human opioid receptor delta 1; assay type: functional
[3] = Stimulation of [35S]GTPcS binding against recombinant human opioid receptor kappa 1; assay type: functional
[4] = Inhibition of [3H]U-69593 binding to recombinant human Opioid receptor kappa 1
[5] = Half life in rat liver microsomes; assay type: ADME, Microsome
[6] = Half life in monkey liver microsomes; assay type: ADME, Microsome; conditions: cercopithecidae
Mu-type opioid receptor = Mu-type opioid receptor (Homo sapiens, UniProt P35372); experiment: Inhibition of [3H]-DAMGO binding to recombinant human Opioid receptor mu 1
Chain of Mu-type opioid receptor (P35372 whole entry): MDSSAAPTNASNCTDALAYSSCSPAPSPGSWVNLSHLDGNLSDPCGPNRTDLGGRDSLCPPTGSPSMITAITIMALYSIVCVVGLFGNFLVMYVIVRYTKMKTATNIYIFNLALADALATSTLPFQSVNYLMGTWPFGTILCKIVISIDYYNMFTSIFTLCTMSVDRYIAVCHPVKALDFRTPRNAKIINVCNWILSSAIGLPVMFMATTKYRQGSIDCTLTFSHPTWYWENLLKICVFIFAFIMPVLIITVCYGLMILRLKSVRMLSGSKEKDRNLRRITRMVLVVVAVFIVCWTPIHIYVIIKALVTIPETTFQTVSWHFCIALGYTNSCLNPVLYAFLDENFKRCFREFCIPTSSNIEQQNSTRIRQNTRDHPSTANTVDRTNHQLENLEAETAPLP

[7] = Inhibition of [3H]DPDPE binding to recombinant human Opioid receptor delta 1
[8] = molecular target: Opioid receptors; mu & delta (Homo sapiens) (UniProt P41143+P35372); experiment: Receptor selectivity ratio for Opioid receptors delta 1 and mu 1; assay type: protein assay
Chain of Opioid receptors; mu & delta (Homo sapiens) (P35372 whole entry, looked up): as the sequence (P35372 whole entry) above
Chain of Opioid receptors; mu & delta (Homo sapiens) (P41143 whole entry, looked up): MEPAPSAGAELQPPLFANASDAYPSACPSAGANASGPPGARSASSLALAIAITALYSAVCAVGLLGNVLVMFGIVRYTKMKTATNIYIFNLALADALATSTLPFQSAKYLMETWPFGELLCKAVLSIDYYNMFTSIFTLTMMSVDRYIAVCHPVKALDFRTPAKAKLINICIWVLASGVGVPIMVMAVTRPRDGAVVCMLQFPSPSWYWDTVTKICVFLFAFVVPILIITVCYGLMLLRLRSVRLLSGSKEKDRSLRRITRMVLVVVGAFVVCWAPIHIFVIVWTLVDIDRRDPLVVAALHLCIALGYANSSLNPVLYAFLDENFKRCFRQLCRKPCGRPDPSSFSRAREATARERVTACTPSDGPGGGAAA

Homo sapiens [9] = species on record: Homo sapiens; experiment: Percentage stimulation of [35S]-GTPcS binding compared to relevant control; assay type: functional
[10] = Stimulation of [35S]GTPcS binding against recombinant human opioid receptor kappa 1;ND=no detectable activity; assay type: functional
Homo sapiens [11] = species on record: Homo sapiens; experiment: Percentage stimulation of [35S]GTPcS binding compared to relevant control;ND=no detectable activity; assay type: functional
Homo sapiens [12] = species on record: Homo sapiens; experiment: Percentage stimulation of [35S]GTPcS binding compared to relevant control; ND=Not detectable activity; assay type: functional
[13] = Half life in human liver microsomes; assay type: ADME, Microsome

Compound	EC50 [1] [nM]	EC50 [2] [nM]	EC50 [3] [nM]	Ki [4] [nM]	half-life [5] [min]	half-life [6] [min]	Ki (Mu-type opioid receptor) [nM]	Ki [7] [nM]	Selectivity [8]	Emax (Homo sapiens [9])	EC50 [10]	Emax (Homo sapiens [11])	Emax (Homo sapiens [12])	half-life [13] [min]
COC1[C@H](NC(=O)CC2OC(COCc3ccccc3)C(OCc3ccccc3)C(OCc3ccccc3)C2OCc2ccccc2)C=C[C@H]2[C@H]3Cc4ccc(O)cc4[C@@]12CCN3C (some centres not stated)	623	2.2	1.8	15.8	24.6	30.7	0.5	7.2						
COC1[C@H](NC(=O)CC2OC(CO)C(O)C(O)C2O)C=C[C@H]2[C@H]3Cc4ccc(O)cc4[C@@]12CCN3C (some centres not stated) [DEPROTECTED COGENER OF M6G]	37.2	335					3.5	266	76.7 and 166					
COC1[C@H](SC2OC(CO)C(O)C(O)C2O)C=C[C@H]2[C@H]3Cc4ccc(O)cc4[C@@]12CCN3C (some centres not stated)	91.5	192	321	136				56.2	10.4 and 25.4	42.5% and 64.5% and 51.5%				
COC1[C@H](SC2OC(C(=O)O)C(O)C(O)C2O)C=C[C@H]2[C@H]3Cc4ccc(O)cc4[C@@]12CCN3C (some centres not stated)	90.6	50.1		288			8.7	31.4			Not Active	inactive		
CN1CC[C@]23c4c5ccc(O)c4O[C@H]2[C@@H](O[C@@H]2O[C@H](C(=O)O)[C@@H](O)[C@H](O)[C@H]2O)C=C[C@H]3[C@H]1C5 [MORPHINE GLUCURONIDE]	72.3	190	> 10000	4060			12.9	170					inactive	
COC1[C@H](NC(=O)CC2OC(COCc3ccccc3)C(OCc3ccccc3)C(OCc3ccccc3)C2OCc2ccccc2)CC[C@H]2[C@H]3Cc4ccc(O)cc4[C@@]12CCN3C (some centres not stated)					19.8	90								42.9
